Measured values: patent US6830310B2, “Detectable markers in cationic polymeric fixers” (Hewlett-Packard Development Company, L.P., priority 2002, dated 2004)

How the values were obtained:
[1] = Color of the fixer solution in the presence of the compound; format: physicochemical
From the text: 3) “Color” refers to the color of the fixer solution in the presence of the compound.

[2] = Solubility of indicator in polymonoguanadine fixer; settings: for Solubility @ 0.1%: 0.1% in 4 wt % polymonoguanadine fixer; for Solubility @ 0.01 %: 0.01% in 4 wt % polymonoguanadine fixer
From the text: Fixer solutions were made by mixing a water based fixer containing a polymonoguanadine cationic polymer with an IR or UV absorber indicator.
2) The solubility is based on the solubility of the compound in a 4 wt % polymonoguanadine fixer.

Compound | Color [1] | Solubility @ 0.1% [2] | Solubility @ 0.01 % [2] | Solubility in the fixer vehicle ([2]; fixer vehicle that is mostly water) | Solubility in polymonoguanadine thermal inkjet fixer ([2]; 750 ppm) | Solubility (general statement) ([2]; in water / fixer)
CN(C)c1ccc(C=Cc2ccccn2)cc1 [2-[4-(Dimethylamino)styryl]pyridine] | Orange | No |  |  |  | 
CCN(CC)CCc1c(C)c2ccc(O)cc2oc1=O.Cl [3-[2-(diethylamino)ethyl]-7-hydroxy-4-methylcoumarin hydrochloride] |  |  | Yes |  |  | 
Nc1ccc(C(=O)O)cc1 [4-Aminobenzoic acid (PABA), 4-Aminobenzoic acid] | Clear | Yes | Yes |  |  | 
Cc1cc(=O)oc2cc(O)c(O)cc12 [4-Methylesculetin] | Clear | No | No |  |  | 
CCN(CC)c1ccc2c(C)cc(=O)oc2c1 [7-Diethylamino-4-methyl coumarin, 7-diethylamino-4-methyl coumarin] |  | Yes | Yes |  |  | 
Cc1cc(O)nc2cc(N)ccc12 [Carbostyril 124] | Clear | No | Yes |  |  | 
CCN(CC)c1ccc2cc(-c3nc4ccccc4[nH]3)c(=O)oc2c1 [Coumarin 7] | Yellow | No | No |  |  | 
CN(C)c1ccc2c(C(F)(F)F)cc(=O)oc2c1 [Coumarin 152] |  | No | No |  |  | 
Cc1ccc2nc(-c3ccc(N=NNc4ccc(-c5nc6ccc(C)c(S(=O)(=O)[O-])c6s5)cc4)cc3)sc2c1S(=O)(=O)[O-].[Na+].[Na+] [Direct Yellow 9] | Yellow | No |  |  |  | 
O=S(=O)([O-])c1cc(Nc2nc(Nc3ccccc3)nc(N(CCO)CCO)n2)ccc1/C=C/c1ccc(Nc2nc(Nc3ccccc3)nc(N(CCO)CCO)n2)cc1S(=O)(=O)[O-].[Na+].[Na+] [FluorescentBrightner28] | Clear |  |  |  |  | 
CCN1/C(=C/C=C2\CCC(/C=C/c3sc4ccc(Cl)cc4[n+]3CC)=C2N(c2ccccc2)c2ccccc2)Sc2ccc(Cl)cc21.[O-][Cl+3]([O-])([O-])[O-] [IR140] | Pale Blue | No | No |  |  | 
CC1(C)C(/C=C/C=C/C=C/C=C2\N(CCCCS(=O)(=O)O)c3ccc4ccccc4c3C2(C)C)=[N+](CCCCS(=O)(=O)[O-])c2ccc3ccccc3c21 [Indocyanine Green] | Green | No | No |  |  | 
Cc1cc2nc3[nH]c(=O)[nH]c(=O)c3nc2cc1C [Lumichrome] | Clear | No | No |  |  | 
CCOc1ccc2c(ccc(/C=C/c3cccc([N+](=O)[O-])c3)[n+]2C)c1.COS(=O)(=O)[O-] [Pinacryptol Yellow] | Yellow | No |  |  |  | 
C(=Cc1ccccc1)c1ccccc1 [Stilbene] |  |  |  | not soluble |  | 
Cc1ccc2c(c1)sc(-c1ccc(N(C)C)cc1)[n+]2C.[Cl-] [Thioflavin T] | Yellow | No | Yes |  |  | 
CCN=C1C=CC(=C(c2ccc(N(CC)CC)cc2)c2ccc(N(CC)CC)cc2)c2ccccc21.Cl [Victoria Blue BO] | Blue |  | Yes |  |  | 
CN1/C(=C/C=C/C=C/C=C/C2=[N+](C)c3ccccc3C2(C)C)C(C)(C)c2ccccc21.[I-] [tricarbocyanine, 1,1′,3,3,3′,3′-Hexamethylindotricarbocyanine iodide] |  |  |  |  | not soluble | only limited solubility
Variamine Blue | Yellow | Yes | Yes |  |  | 
